Measured values reported in patent US20230286948A1 (HUYABIO International, LLC, priority 2022, published 2023).

biological target: MLL1-WDR5 protein-protein interaction (Homo sapiens (Human), UniProt P61964); assay: WDR5 TR-FRET assay (MLL1-WDR5 PPI inhibition); assay type: binding; settings: 5 nM WDR5 protein, 10 nM peptide, read-out: IC50 (nM), MLL1-WDR5 PPI inhibitory activity
Experimental: WDR5 TR-FRET Assay Procedure: Stock compounds were transferred to the assay plate by Echo Liquid Handler. […] Stock compounds were incubated with WDR5 protein for 30 min at room temperature. Plates were covered, protected from light and incubated for 60 min at room temperature, after adding the peptide and Tb-Ab. EnVision Multimode Plate Reader (PerkinElmer) was used for the TR-FRET assay with excitation wavelength at 340 nm and emission wavelength at 495 and 520 nm. The ratio of the 520/495 wavelengths were used to assess the degree of the FRET signal. IC50 was calculated by fitting the inhibition data using XLfit software to sigmoidal dose-response model.

SMILES	IC50
CN1CCN(c2ccc(-n3cc(C(=O)NCCCN4CCOCC4)nn3)cc2NC(=O)c2cnc([S+](C)[O-])nc2C(F)(F)F)CC1 (centres unmarked) [Example 28, N-(2-(4-methylpiperazin-1-yl)-5-(4-((3-morpholinopropyl)carbamoyl)-1H-1,2,3-triazol-1-yl)phenyl)-2-(methylsulfinyl)-4-(trifluoromethyl)pyrimidine-5-carboxamide]	> 10000 nM
CCOc1ncc(C(=O)Nc2cc(-n3cc(C(=O)NCCCN4CCOCC4)nn3)ccc2N2CCN(C)CC2)c(C(F)(F)F)n1 [Example 29, 2-ethoxy-N-(2-(4-methylpiperazin-1-yl)-5-(4-((3-morpholinopropyl)carbamoyl)-1H-1,2,3-triazol-1-yl)phenyl)-4-(trifluoromethyl)pyrimidine-5-carboxamide]	> 10000 nM
COc1nc(SC)ncc1C(=O)Nc1cc(-n2cc(C(=O)NCCCN3CCOCC3)nn2)ccc1N1CCN(C)CC1 [Example 30, 4-methoxy-N-(2-(4-methylpiperazin-1-yl)-5-(4-((3-morpholinopropyl)carbamoyl)-1H-1,2,3-triazol-1-yl)phenyl)-2-(methylthio)pyrimidine-5-carboxamide]	> 10000 nM
Cc1cc(C(F)(F)F)ncc1C(=O)Nc1cc(-n2cc(C(=O)NCCCN3CCOCC3)nn2)ccc1N1CCN(C)CC1 [Example 31, 4-methyl-N-(2-(4-methylpiperazin-1-yl)-5-(4-((3-morpholinopropyl)carbamoyl)-1H-1,2,3-triazol-1-yl)phenyl)-6-(trifluoromethyl)nicotinamide]	> 10000 nM
CN1CCN(c2ccc(-n3cc(C(=O)NCCCN4CCOCC4)nn3)cc2NC(=O)c2nnc(Cl)cc2Cl)CC1 [Example 32, 4,6-dichloro-N-(2-(4-methylpiperazin-1-yl)-5-(4-((3-morpholinopropyl)carbamoyl)-1H-1,2,3-triazol-1-yl)phenyl)pyridazine-3-carboxamide]	> 10000 nM
CN1CCN(c2ccc(-n3cc(C(=O)NCCCN4CCOCC4)nn3)cc2NC(=O)c2nnc(Cl)cc2N)CC1 [Example 33, 4-amino-6-chloro-N-(2-(4-methylpiperazin-1-yl)-5-(4-((3-morpholinopropyl)carbamoyl)-1H-1,2,3-triazol-1-yl)phenyl)pyridazine-3-carboxamide]	> 10000 nM
CN1CCN(c2ccc(-n3cc(C(=O)NCCCN4CCOCC4)nn3)cc2NC(=O)c2ncc(Cl)nc2Cl)CC1 [Example 34, 3,5-dichloro-N-[2-(4-methylpiperazin-1-yl)-5-[4-(3-morpholinopropylcarbamoyl)triazol-1-yl]phenyl]pyrazine-2-carboxamide]	> 10000 nM
COc1cnc(C(=O)Nc2cc(-n3cc(C(=O)NCCCN4CCOCC4)nn3)ccc2N2CCN(C)CC2)c(Cl)n1 [Example 35, 3-chloro-5-methoxy-N-(2-(4-methylpiperazin-1-yl)-5-(4-((3-morpholinopropyl)carbamoyl)-1H-1,2,3-triazol-1-yl)phenyl)pyrazine-2-carboxamide]	> 10000 nM
COc1cnc(C(=O)Nc2cc(-n3cc(C(=O)NCCCN4CCOCC4)nn3)ccc2N2CCN(C)CC2)c(OC)n1 [Example 36, 3,5-dimethoxy-N-(2-(4-methylpiperazin-1-yl)-5-(4-((3-morpholinopropyl)carbamoyl)-1H-1,2,3-triazol-1-yl)phenyl)pyrazine-2-carboxamide]	> 10000 nM
CN1CCN(c2ccc(-n3cc(C(=O)NCCCN4CCOCC4)nn3)cc2NC(=O)c2ccc(Cl)nc2C(F)(F)F)CC1 [Example 37, 6-chloro-N-(2-(4-methylpiperazin-1-yl)-5-(4-((3-morpholinopropyl)carbamoyl)-1H-1,2,3-triazol-1-yl)phenyl)-2-(trifluoromethyl)nicotinamide]	1960 nM
COc1ccc(C(=O)Nc2cc(-n3cc(C(=O)NCCCN4CCOCC4)nn3)ccc2N2CCN(C)CC2)c(C(F)(F)F)n1 [Example 38, 6-methoxy-N-(2-(4-methylpiperazin-1-yl)-5-(4-((3-morpholinopropyl)carbamoyl)-1H-1,2,3-triazol-1-yl)phenyl)-2-(trifluoromethyl)nicotinamide]	> 10000 nM
CN1CCN(c2ccc(-n3cc(C(=O)NCCCN4CCOCC4)nn3)cc2NC(=O)c2ccc(C#N)nc2C(F)(F)F)CC1 [Example 39, 6-cyano-N-[2-(4-methylpiperazin-1-yl)-5-[4-(3-morpholinopropylcarbamoyl)triazol-1-yl]phenyl]-2-(trifluoromethyl)pyridine-3-carboxamide]	1150 nM
COc1ccc(CNc2ccc(C(=O)Nc3cc(-n4cc(C(=O)NCCCN5CCOCC5)nn4)ccc3N3CCN(C)CC3)c(C(F)(F)F)n2)cc1 [Example 42, 6-((4-methoxybenzyl)amino)-N-(2-(4-methylpiperazin-1-yl)-5-(4-((3-morpholinopropyl)carbamoyl)-1H-1,2,3-triazol-1-yl)phenyl)-2-(trifluoromethyl)nicotinamide]	> 10000 nM
CSc1ccc(C(=O)Nc2cc(-n3cc(C(=O)NCCCN4CCOCC4)nn3)ccc2N2CCN(C)CC2)c(C(F)(F)F)n1 [Example 43, N-(2-(4-methylpiperazin-1-yl)-5-(4-((3-morpholinopropyl)carbamoyl)-1H-1,2,3-triazol-1-yl)phenyl)-6-(methylthio)-2-(trifluoromethyl)nicotinamide]	> 10000 nM
CN1CCN(c2ccc(-n3cc(C(=O)NCCCN4CCOCC4)nn3)cc2NC(=O)c2ccc(S(C)(=O)=O)nc2C(F)(F)F)CC1 [Example 44, N-[2-(4-methylpiperazin-1-yl)-5-[4-(3-morpholinopropylcarbamoyl)triazol-1-yl]phenyl]-6-methylsulfonyl-2-(trifluoromethyl)pyridine-3-carboxamide]	> 10000 nM
CN1CCN(c2ccc(-n3cc(C(=O)NCCCN4CCOCC4)nn3)cc2NC(=O)c2ccc(Cl)cc2C(F)(F)F)CC1 [Example 46, 1-(3-(4-chloro-2-(trifluoromethyl)benzamido)-4-(4-methylpiperazin-1-yl)phenyl)-N-(3-morpholinopropyl)-1H-1,2,3-triazole-4-carboxamide]	458 nM
CN1CCN(c2ccc(-n3cc(C(=O)NCCCN4CCOCC4)nn3)cc2NC(=O)c2cc(C(F)(F)F)cc(C(F)(F)F)c2)CC1 [Example 47, 1-(3-(3,5-bis(trifluoromethyl)benzamido)-4-(4-methylpiperazin-1-yl)phenyl)-N-(3-morpholinopropyl)-1H-1,2,3-triazole-4-carboxamide]	3520 nM
Cc1cc(Cl)c(C(=O)Nc2cc(-n3cc(C(=O)NCCCN4CCOCC4)nn3)ccc2N2CCN(C)CC2)cc1[N+](=O)[O-] [Example 48, 1-[3-[(2-chloro-4-methyl-5-nitro-benzoyl)amino]-4-(4-methylpiperazin-1-yl)phenyl]-N-(3-morpholinopropyl)triazole-4-carboxamide]	> 10000 nM
Cc1cc(Cl)c(C(=O)Nc2cc(-n3cc(C(=O)NCCCN4CCOCC4)nn3)ccc2N2CCN(C)CC2)cc1N [Example 49, 1-(3-(5-amino-2-chloro-4-methylbenzamido)-4-(4-methylpiperazin-1-yl)phenyl)-N-(3-morpholinopropyl)-1H-1,2,3-triazole-4-carboxamide]	4370 nM
C[C@@H]1CN(c2cc(F)c(-n3cc(C(=O)N4CCN(C)CC4)nn3)cc2NC(=O)c2cnc(Cl)cc2C(F)(F)F)C[C@H](C)N1C [Example 51, 6-chloro-N-(4-fluoro-5-(4-(4-methylpiperazine-1-carbonyl)-1H-1,2,3-triazol-1-yl)-2-((3S,5R)-3,4,5-trimethylpiperazin-1-yl)phenyl)-4-(trifluoromethyl)nicotinamide]	326 nM
C[C@@H]1CN(c2cc(F)c(-n3cc(C(=O)NC4CCN(C)CC4)nn3)cc2NC(=O)c2cnc(Cl)cc2C(F)(F)F)C[C@H](C)N1C [Example 52, 6-chloro-N-(4-fluoro-5-(4-((1-methylpiperidin-4-yl)carbamoyl)-1H-1,2,3-triazol-1-yl)-2-((3S,5R)-3,4,5-trimethylpiperazin-1-yl)phenyl)-4-(trifluoromethyl)nicotinamide]	287 nM
CCN(CC)C(=O)c1cn(-c2cc(NC(=O)c3cnc(F)cc3C(F)(F)F)c(N3C[C@@H](C)N(C)[C@@H](C)C3)cc2F)nn1 [Example 53, N-(5-(4-(diethylcarbamoyl)-1H-1,2,3-triazol-1-yl)-4-fluoro-2-((3S,5R)-3,4,5-trimethylpiperazin-1-yl)phenyl)-6-fluoro-4-(trifluoromethyl)nicotinamide]	535 nM
COc1cc(C(F)(F)F)c(C(=O)Nc2cc(-n3cc(C(=O)NC4CCN(C)CC4)nn3)c(F)cc2N2C[C@@H](C)N(C)[C@@H](C)C2)cn1 [Example 54, N-(4-fluoro-5-(4-((1-methylpiperidin-4-yl)carbamoyl)-1H-1,2,3-triazol-1-yl)-2-((3S,5R)-3,4,5-trimethylpiperazin-1-yl)phenyl)-6-methoxy-4-(trifluoromethyl)nicotinamide]	618 nM
COc1cc(C(F)(F)F)c(C(=O)Nc2cc(-n3cc(C(=O)NCCCN4CCOCC4)nn3)c(F)cc2N2C[C@@H](C)N(C)[C@@H](C)C2)cn1 [Example 55]	2820 nM
CCN(CC)C(=O)c1cn(-c2cc(NC(=O)c3cnc(Cl)cc3Cl)c(N3C[C@@H](C)N(C)[C@@H](C)C3)cc2F)nn1 [Example 56, 4,6-dichloro-N-[5-[4-(diethylcarbamoyl)triazol-1-yl]-4-fluoro-2-[(3R,5S)-3,4,5-trimethylpiperazin-1-yl]phenyl]pyridine-3-carboxamide]	1160 nM
C[C@@H]1CN(c2cc(F)c(-n3cc(C(=O)N4CCN(C)CC4)nn3)cc2NC(=O)c2cnc(Cl)cc2Cl)C[C@H](C)N1C [Example 57, 4,6-dichloro-N-(4-fluoro-5-(4-(4-methylpiperazine-1-carbonyl)-1H-1,2,3-triazol-1-yl)-2-((3S,5R)-3,4,5-trimethylpiperazin-1-yl)phenyl)nicotinamide]	2170 nM
